Laboratory results published in PMC7971076 (Bioorganic & medicinal chemistry letters, 2015).

How the values were obtained:
[1] = test system: diheteromeric NMDA receptors (GluN1 with GluN2A–D); assay: Two electrode voltage clamp, statements across the diheteromeric NMDA receptors; format: cell-based, rat; conditions: for decrease in potency: relative to parent analogues (1/14)
[2] = molecular target: GluN1/GluN2C NMDA receptor (Rattus norvegicus, UniProt P35439+Q00961); format: cell-based; conditions: 3 µM compound, absence of Mg2+, n = 5
Sequence of GluN1/GluN2C NMDA receptor (Q00961 20-1237, other chains not shown): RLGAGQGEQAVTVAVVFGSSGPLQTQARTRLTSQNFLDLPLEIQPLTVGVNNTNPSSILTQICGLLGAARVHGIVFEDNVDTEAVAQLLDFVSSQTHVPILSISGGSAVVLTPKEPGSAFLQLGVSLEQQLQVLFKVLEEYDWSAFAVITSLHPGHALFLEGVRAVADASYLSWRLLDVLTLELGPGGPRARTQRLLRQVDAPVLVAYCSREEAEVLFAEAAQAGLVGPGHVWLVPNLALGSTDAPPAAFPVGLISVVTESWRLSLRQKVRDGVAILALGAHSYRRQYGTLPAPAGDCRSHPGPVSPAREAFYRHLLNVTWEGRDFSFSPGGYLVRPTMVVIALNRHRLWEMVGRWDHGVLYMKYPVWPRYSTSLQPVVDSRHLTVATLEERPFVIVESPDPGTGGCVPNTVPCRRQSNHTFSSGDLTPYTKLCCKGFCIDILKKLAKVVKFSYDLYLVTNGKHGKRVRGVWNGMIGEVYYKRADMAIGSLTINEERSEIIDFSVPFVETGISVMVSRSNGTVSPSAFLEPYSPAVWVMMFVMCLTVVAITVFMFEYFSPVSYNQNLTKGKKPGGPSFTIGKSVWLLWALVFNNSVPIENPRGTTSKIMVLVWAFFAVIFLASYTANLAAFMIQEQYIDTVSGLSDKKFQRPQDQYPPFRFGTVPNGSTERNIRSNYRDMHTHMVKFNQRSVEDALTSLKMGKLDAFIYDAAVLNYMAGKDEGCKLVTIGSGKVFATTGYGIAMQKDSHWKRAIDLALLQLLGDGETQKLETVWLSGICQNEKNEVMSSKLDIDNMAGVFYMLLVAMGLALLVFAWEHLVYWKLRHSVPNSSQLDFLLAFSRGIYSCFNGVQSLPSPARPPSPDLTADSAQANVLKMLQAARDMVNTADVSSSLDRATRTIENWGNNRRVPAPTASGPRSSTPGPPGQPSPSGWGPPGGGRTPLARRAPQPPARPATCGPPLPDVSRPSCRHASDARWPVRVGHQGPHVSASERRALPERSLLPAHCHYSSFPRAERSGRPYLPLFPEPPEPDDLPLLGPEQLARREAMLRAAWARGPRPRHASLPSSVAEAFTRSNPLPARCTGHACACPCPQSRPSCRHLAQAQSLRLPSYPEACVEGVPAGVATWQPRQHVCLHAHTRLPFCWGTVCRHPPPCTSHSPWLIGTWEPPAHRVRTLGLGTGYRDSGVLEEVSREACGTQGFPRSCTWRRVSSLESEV

[3] = test system: cultured primary hippocampal neurons; assay: Neuroprotection against NMDA-induced excitotoxicity, LDH release; format: cell-based; conditions: 100 µM NMDA plus 30 µM glycine 1 h; LDH 20–24 h after; 30 µM 4, 10 µM (+)MK-801
[4] = molecular target: GluN1/GluN2D NMDA receptor (Rattus norvegicus, UniProt P35439+Q62645); format: cell-based; conditions: compared to screening hit 1
Sequence of GluN1/GluN2D NMDA receptor (Q62645 28-1323, other chains not shown): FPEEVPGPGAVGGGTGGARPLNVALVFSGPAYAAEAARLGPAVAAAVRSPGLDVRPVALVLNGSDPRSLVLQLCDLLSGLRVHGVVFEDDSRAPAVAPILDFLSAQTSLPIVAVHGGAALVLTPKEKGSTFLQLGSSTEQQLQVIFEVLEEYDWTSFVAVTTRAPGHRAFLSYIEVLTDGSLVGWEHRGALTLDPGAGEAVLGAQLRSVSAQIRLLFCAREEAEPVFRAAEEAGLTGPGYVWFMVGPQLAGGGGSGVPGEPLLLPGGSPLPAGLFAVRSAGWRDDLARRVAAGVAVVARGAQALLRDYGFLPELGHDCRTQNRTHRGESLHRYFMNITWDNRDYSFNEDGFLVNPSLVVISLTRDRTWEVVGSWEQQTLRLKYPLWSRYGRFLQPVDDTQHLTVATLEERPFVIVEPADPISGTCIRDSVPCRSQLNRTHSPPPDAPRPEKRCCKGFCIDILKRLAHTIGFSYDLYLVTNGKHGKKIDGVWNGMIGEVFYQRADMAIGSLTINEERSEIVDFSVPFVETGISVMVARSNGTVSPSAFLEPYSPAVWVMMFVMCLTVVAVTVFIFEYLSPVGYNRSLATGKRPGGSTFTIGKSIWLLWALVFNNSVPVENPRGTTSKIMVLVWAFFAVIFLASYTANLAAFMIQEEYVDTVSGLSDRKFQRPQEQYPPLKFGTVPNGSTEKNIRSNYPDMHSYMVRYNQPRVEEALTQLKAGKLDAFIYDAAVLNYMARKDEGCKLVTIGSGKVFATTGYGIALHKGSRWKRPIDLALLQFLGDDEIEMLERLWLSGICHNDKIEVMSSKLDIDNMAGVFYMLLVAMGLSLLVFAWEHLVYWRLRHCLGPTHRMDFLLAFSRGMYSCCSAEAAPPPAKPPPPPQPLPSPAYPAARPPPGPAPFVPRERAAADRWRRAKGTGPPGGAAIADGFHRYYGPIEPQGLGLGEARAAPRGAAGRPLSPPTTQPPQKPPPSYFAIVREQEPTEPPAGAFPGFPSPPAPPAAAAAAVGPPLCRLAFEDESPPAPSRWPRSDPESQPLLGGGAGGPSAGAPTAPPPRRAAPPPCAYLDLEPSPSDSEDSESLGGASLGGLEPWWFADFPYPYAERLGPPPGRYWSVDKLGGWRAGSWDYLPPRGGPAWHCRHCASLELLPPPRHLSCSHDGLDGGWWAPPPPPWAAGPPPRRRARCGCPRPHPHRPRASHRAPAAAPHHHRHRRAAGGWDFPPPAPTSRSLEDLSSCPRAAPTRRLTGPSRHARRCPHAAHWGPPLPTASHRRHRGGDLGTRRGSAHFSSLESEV

[5] = Stability of enantiomers separated by chiral semi-preparative HPLC; format: physicochemical; conditions: after chiral semi-preparative HPLC

N=C1NC(=O)C(CC(=O)Nc2sc3c(c2C(=O)O)CCCC3)S1 (centres unmarked) [Compound 13]
activity at NMDA receptor subtypes [1]: loss of activity

CCOC(=O)c1cc(C)sc1NC(=O)CC1SC(=N)NC1=O (centres unmarked) [Compound 15]
decrease in potency [1]: > 4 fold

N#Cc1c(NC(=O)CC2SC(=N)NC2=O)sc2c1CCCC2 (centres unmarked) [Compound 21]
maximal inhibition [1]: 60%

CCOC(=O)c1c(NC(=O)CC2SC(N)=NC2=O)sc2c1CCC(C)C2 (centres unmarked) [Compound 4]
degree of inhibition at membrane potentials between ‒60 and +60 mV [2]: the same at all voltages tested | improved activity compared to unsubstituted counterpart 5 [1]: ~ 2 fold | mechanism: inhibition with 10-fold increase in glutamate (1000 µM) or glycine (300 µM) ([1]; 5 µM compound): could not be surmounted | inhibition at saturating concentrations against all GluN2 subunits ([1]; separate experiments, n = 4–6): 73–81% | NMDA/glycine-induced cell death (supernatant LDH) [3]: reduced significantly

COC(=O)c1c(NC(=O)CC2SC(N)=NC2=O)sc2c1CCCC2 (centres unmarked) [Compound 20]
increase in potency at GluN2D-containing receptors [4]: 2 fold

COC(=O)c1c(NC(=O)CC2SC(N)=NC2=O)sc2c1CCC(C)C2 (centres unmarked) [Compound 22]
IC50 values for all NMDA receptor subunits [1]: submicromolar

CCOC(=O)c1c(NC(=O)CC2NC(=O)NC2=O)sc2c1CCCC2 (centres unmarked) [Compound 27]
activity at NMDA receptor subtypes [1]: abrogated activity

C[C@]12N[C@H](Cc3ccccc31)c1ccccc12 [(+)MK-801, reference compound]
NMDA/glycine-induced cell death (supernatant LDH) [3]: able to attenuate

COC(=O)c1ccsc1NC(=O)CC1SC(=N)NC1=O (centres unmarked) [Compound 19]
decrease in potency [1]: over 10 fold

CCOC(=O)c1c(NC(=O)CC2SC(=O)NC2=O)sc2c1CCCC2 (centres unmarked) [Compound 25]
activity at NMDA receptor subtypes [1]: abolished activity

CCOC(=O)c1c(NC(=O)CC2SC(=N)NC2=O)sc2c1CCC(F)(F)C2 (centres unmarked) [Compound 11]
racemization of separated enantiomers [5]: prone to rapid racemization

CCOC(=O)c1c(NC(=O)CC2SC(=N)NC2=O)sc2c1CCCC2 (centres unmarked) [Compound 5]
increase in potency at GluN2D-containing receptors [4]: 3 fold

CCOC(=O)c1c(NC(=O)CC2SC(=O)NC2=O)sc2c1CCC2 (centres unmarked) [Compound 24]
activity at NMDA receptor subtypes [1]: abolished activity
